In patent US8987486B2, “Trans-2-decenoic acid derivative and pharmaceutical agent containing the same” (Nagoya Industrial Science Research Institute, priority 2010, dated 2015):

Test system: Spinal cord injury model rats
Assay: Repairing action for the spinal cord injury, BBB scale (complete cut at T10)
Type: in vivo
Settings: 100 μg/kg body weight intraperitoneally once daily, after six weeks, n=6
Description: Spinal cord injury model rats were prepared and the repairing action of the compound 1 for the spinal cord injury was investigated. The compound 1 was dissolved in a phosphate buffered saline (PBS) and intraperitoneally administered to each spinal cord injury model rat once daily in a dose of 100 μg/kg body weight. As a control, PBS was similarly administered.
Female Wistar rats of seven weeks age were anesthetized with pentobarbital (40 mg/kg), the spinal column was exposed, vertebral arch of the ninth thoracic vertebra was excised and the tenth thoracic cord (T10) was completely cut using a sharp knife. After the back muscle and the skin were satured, paralysis of hind limbs was confirmed to prepare spinal cord injury model rats.
For each of the groups administered with the compound 1 and PBS, the improvement in motor function of the spinal cord injury model rats during six weeks was evaluated every day according to a BBB scale (Basso D M, et al., J. Neurotrauma, 12:1-21 (1995)) (0 for immediately after the injury while 21 for non-injury). Incidentally, the test of significance was conducted by a two-way ANOV, Bonferroni test.

SMILES: CCCCCCC/C=C/C(=O)OCCN(C)C [Compound 1, (E)-2-(dimethylamino)ethyl dec-2-enoate]
- mean value of BBB scores±SE: 11.60±2.2
